Biological target: T1, E297G variant of human ABCB11 (Homo sapiens, UniProt O95342, E297G)
T1 construct: expressed in transfected cells
Experiment: ABCB11 E297G expression assay (HiBit lytic luminescence) in HEK-293/E297G cells
Assay type: cell-based
Conditions: increase in expression of ABCB11 E297G, 24 hours treatment, top concentration 25 μM, class also includes Emax criterion, read-out: BSEP EC50
Excerpt: To assess activity against ABCB11 E297G, the compounds were screened in an assay measuring protein expression, using cells transfected with cDNA encoding HiBit-tagged ABCB11 E297G.
Here we describe an assay for measuring the expression of the E297G variant of human ABCB11 (henceforth referred to as ABCB11 E297G) and the use of this assay to measure the efficacy of compounds to increase the expression of ABCB11 E297G. The assay was designed to characterize the efficacy and potency of compounds to increase the expression of ABCB11 E297G by calculating an Emax and EC50 value. HEK-293 cells stably expressing E297G (HEK-293/E297G cells) were used for this assay and were maintained at 37° C. (5% CO2, humidified) in Eagle's Minimum Essential Medium supplemented with 10% fetal bovine serum and 1% Glutamine. For the assay, the HEK-293/E297G cells were seeded in black/transparent-bottom 384-well plates at 20,000 cells/well in 22.5 μl Opti-MEM (Thermofisher, product #11058021) media supplemented with 2.7% of fetal bovine serum (Gibco, product #16000044) and allowed to settle for 4 hours at 37° C. (5% CO2, humidified). Compound serial dilutions are prepared in Opti-MEM as four times (4×) the final concentration and using a dilution factor of 2.15. After the four h incubation period, 7.5 μL of the 4× dilutions are transferred to the assay plate.
Dose response curves include eight doses with the top final concentration at 25 μM in 0.75% DMSO. Liquid handling is performed in a robotic device equipped with a 384-tip head (Analytik Jena—CyBio Vario). After addition of compound treatment, cells are incubated for 24 hours at 37° C. (5% CO2, humidified). After the 24-hour treatment, plates are allowed to equilibrate for 30 minutes at room temperature. Using the Analytik Jena—CyBio Vario instrument, the volume of each well is reduced to 15 μl and 15 μl of HiBit lytic assay reagent (Promega, product #N3040), which is prepared according to manufacturer's instructions, is added back to each well. The plates are incubated at room temperature for additional 30 minutes and luminescent signal is acquired using a Hamamatsu FDSS 7000 EX plate-reader (20 reads, exposure time 0.2 seconds, gain 200).
Results are presented below in Table 3 for ABCB11 E297G.

T1 sequence (O95342 whole entry E297G): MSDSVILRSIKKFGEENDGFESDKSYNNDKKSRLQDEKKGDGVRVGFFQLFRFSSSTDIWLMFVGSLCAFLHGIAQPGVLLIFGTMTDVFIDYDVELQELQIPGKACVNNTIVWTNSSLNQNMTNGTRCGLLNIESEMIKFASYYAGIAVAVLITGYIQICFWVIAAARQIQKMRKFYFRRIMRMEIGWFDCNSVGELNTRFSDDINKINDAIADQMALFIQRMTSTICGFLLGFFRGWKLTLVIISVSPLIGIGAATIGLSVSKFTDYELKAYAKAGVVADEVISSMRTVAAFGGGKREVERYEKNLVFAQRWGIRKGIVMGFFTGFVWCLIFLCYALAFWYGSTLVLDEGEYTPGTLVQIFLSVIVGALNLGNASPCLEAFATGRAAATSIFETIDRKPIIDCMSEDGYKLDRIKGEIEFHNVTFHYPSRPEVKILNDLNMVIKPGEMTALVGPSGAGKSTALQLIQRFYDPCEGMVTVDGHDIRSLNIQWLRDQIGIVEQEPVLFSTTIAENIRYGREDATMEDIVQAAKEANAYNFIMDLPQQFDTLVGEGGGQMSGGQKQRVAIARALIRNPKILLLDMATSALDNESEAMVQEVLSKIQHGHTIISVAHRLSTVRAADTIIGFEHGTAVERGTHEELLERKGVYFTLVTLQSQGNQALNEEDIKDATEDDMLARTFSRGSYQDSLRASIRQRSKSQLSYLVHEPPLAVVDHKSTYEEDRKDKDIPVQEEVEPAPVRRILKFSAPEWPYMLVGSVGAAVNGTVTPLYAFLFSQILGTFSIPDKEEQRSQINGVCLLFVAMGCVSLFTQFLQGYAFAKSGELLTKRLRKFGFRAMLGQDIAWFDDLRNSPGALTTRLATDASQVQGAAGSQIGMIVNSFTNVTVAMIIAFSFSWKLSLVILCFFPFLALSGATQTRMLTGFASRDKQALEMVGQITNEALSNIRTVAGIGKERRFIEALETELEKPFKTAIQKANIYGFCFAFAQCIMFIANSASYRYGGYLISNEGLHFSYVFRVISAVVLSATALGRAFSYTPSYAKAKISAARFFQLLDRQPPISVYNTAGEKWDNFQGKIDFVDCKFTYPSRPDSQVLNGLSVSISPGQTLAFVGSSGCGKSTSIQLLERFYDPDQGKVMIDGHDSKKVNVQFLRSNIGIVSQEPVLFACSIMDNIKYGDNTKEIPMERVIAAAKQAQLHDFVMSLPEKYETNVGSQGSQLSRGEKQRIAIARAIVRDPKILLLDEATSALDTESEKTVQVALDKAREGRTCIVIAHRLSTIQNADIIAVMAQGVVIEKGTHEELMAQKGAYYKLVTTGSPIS

SMILES | EC50
Cc1ccc(NC(=O)c2cnc(-c3ccccn3)nc2)nc1-c1cn(C)c(=O)c2[nH]ccc12 [Compound I-1] | 2.5 to 10 µM
Cc1ccc(NC(=O)[C@@H]2CCCN2C(C)C)nc1-c1cn(C)c(=O)c2[nH]ccc12 [Compound I-2] | 2.5 to 10 µM
Cc1ccc(NC(=O)c2cnn(-c3ccccc3F)c2)nc1-c1cn(C)c(=O)c2[nH]ccc12 [Compound I-3] | > 25 µM
Cc1ccc(NC(=O)c2nc(-c3ccccc3)ns2)nc1-c1cn(C)c(=O)c2[nH]ccc12 [Compound I-4] | > 25 µM
Cc1ccc(NC(=O)c2ccc(C(F)(F)F)nc2)nc1-c1cn(C)c(=O)c2[nH]ccc12 [Compound I-5] | 2.5 to 10 µM
Cc1ccc(NC(=O)c2cccc3c2OC(C)(C)CC3)nc1-c1cn(C)c(=O)c2[nH]ccc12 [Compound I-6] | 2.5 to 10 µM
Cc1ccc(NC(=O)c2cnc(C(F)(F)F)s2)nc1-c1cn(C)c(=O)c2[nH]ccc12 [Compound I-7] | > 25 µM
Cc1ccc(NC(=O)c2cc(CC(C)C)nn2C)nc1-c1cn(C)c(=O)c2[nH]ccc12 [Compound I-8] | < 2.5 µM
Cc1ccc(NC(=O)c2cnn(-c3ccccc3)c2C)nc1-c1cn(C)c(=O)c2[nH]ccc12 [Compound I-9] | > 25 µM
Cc1cnc2ncc(C(=O)Nc3ccc(C)c(-c4cn(C)c(=O)c5[nH]ccc45)n3)n2c1 [Compound I-10] | > 25 µM
Cc1ccc(NC(=O)C2CCN(c3ccccc3)CC2)nc1-c1cn(C)c(=O)c2[nH]ccc12 [Compound I-11] | < 2.5 µM
Cc1ccc(NC(=O)C2CCN(c3ccccn3)CC2)nc1-c1cn(C)c(=O)c2[nH]ccc12 [Compound I-12] | 2.5 to 10 µM
Cc1ccc(NC(=O)C2CCN(S(C)(=O)=O)CC2)nc1-c1cn(C)c(=O)c2[nH]ccc12 [Compound I-13] | 10 to 25 µM
Cc1ccc(NC(=O)c2cc3ccc(F)cc3n2C)nc1-c1cn(C)c(=O)c2[nH]ccc12 [Compound I-14] | > 25 µM
Cc1ccc(NC(=O)c2ccc3c(c2)OCCN3C)nc1-c1cn(C)c(=O)c2[nH]ccc12 [Compound I-15] | 2.5 to 10 µM
Cc1ccc(NC(=O)c2nc3c(s2)CN(C)CC3)nc1-c1cn(C)c(=O)c2[nH]ccc12 [Compound I-16] | 10 to 25 µM
Cc1ccc(NC(=O)C2CCC(F)(F)C2)nc1-c1cn(C)c(=O)c2[nH]ccc12 (centres unmarked) [Compound I-17] | < 2.5 µM
Cc1ccc(NC(=O)c2ccc3c(c2)n(C)c(=O)n3C)nc1-c1cn(C)c(=O)c2[nH]ccc12 [Compound I-18] | > 25 µM
Cc1ccc(NC(=O)c2cc(-c3ccccc3)no2)nc1-c1cn(C)c(=O)c2[nH]ccc12 [Compound I-19] | > 25 µM
Cc1ccc(NC(=O)c2ccc3c(ccn3C)c2)nc1-c1cn(C)c(=O)c2[nH]ccc12 [Compound I-20] | 2.5 to 10 µM
Cc1ccc(NC(=O)c2cnn(C3CCOCC3)c2)nc1-c1cn(C)c(=O)c2[nH]ccc12 [Compound I-21] | 10 to 25 µM
Cc1ccc(NC(=O)c2coc(N3CCOCC3)n2)nc1-c1cn(C)c(=O)c2[nH]ccc12 [Compound I-22] | 2.5 to 10 µM
Cc1ccc(NC(=O)c2ccc(-n3cccn3)cc2)nc1-c1cn(C)c(=O)c2[nH]ccc12 [Compound I-23] | > 25 µM
Cc1ccc(NC(=O)c2ccncn2)nc1-c1cn(C)c(=O)c2[nH]ccc12 [Compound I-24] | 10 to 25 µM
CCOC(=O)N1CCC(C(=O)Nc2ccc(C)c(-c3cn(C)c(=O)c4[nH]ccc34)n2)CC1 [Compound I-25] | 2.5 to 10 µM
Cc1ccc(NC(=O)c2ccc3cnccc3c2)nc1-c1cn(C)c(=O)c2[nH]ccc12 [Compound I-26] | 2.5 to 10 µM
Cc1ccc(NC(=O)c2cc3n(n2)CCCC3)nc1-c1cn(C)c(=O)c2[nH]ccc12 [Compound I-27] | 2.5 to 10 µM
Cc1ccc(NC(=O)C2CCCc3ccccc32)nc1-c1cn(C)c(=O)c2[nH]ccc12 (centres unmarked) [Compound I-176] | < 2.5 µM
Cc1ccc(NC(=O)C2CCc3ccccc32)nc1-c1cn(C)c(=O)c2[nH]ccc12 (centres unmarked) [Compound I-177] | 2.5 to 10 µM

Reference: US20260092062A1, “PYRIDINE CARBOXAMIDE COMPOUNDS AND THEIR USE IN TREATING MEDICAL CONDITIONS” (Rectify Pharmaceuticals, Inc., priority 2022, published 2026)
